Test results: patent US4018777A, “2-Substituted-5-alkyl resorcinols” (Abbott Laboratories, priority 1975, dated 1977)

Columns and labels:
[1] = tested on: methamphetamine (Desoxyn)-induced motor activity; test: Antipsychotic activity (Rat Desoxyn antagonism), motor activity; type: in vivo; conditions: oral, one hour before test; for Antipsychotic activity (Rat Desoxyn antagonism): 10 mg./kg., methamphetamine 3 mg./kg. sc, vs. Desoxyn treated controls
Protocol: Antipsychotic Activity (Rat Desoxyn Antagonism)
Antipsychotic activity (Desoxyn antagonism) was evaluated in motor activity chambers equipped with photocells. Groups of nine rats were given the compound orally one hour before the test and then administered methamphetamine (Desoxyn) 3 mg./kg. sc, and placed in the chamber. Changes in motor activity were recorded as counts from the photocells and are compared to Desoxyn treated controls.

[2] = tested on: pain threshold to radiant heat on tail (rat tail flick); test: Analgesic activity, rat tail flick (RTF); type: in vivo, rat (male Sprague-Dawley); conditions: oral, 2 hours after dosing
Protocol: (§1) The compounds of this invention are useful as analgesic agents, tranquilizers, sedative-hypnotics and anticonvulsants. The compounds are effective at dosages generally of from 1 to 10 mg./kg. of body weight daily. The analgesic activity was established in the standard mouse writhing test [Whittle, Brit. J. Pharmacol., 22, 296 (1964)] and confirmed in the hot plate assay [Woolfe, G. and McDonald, A. J., J. Pharmacol, Exper. Therap., 80, 300 (1944)] and the rat tail flick test.
In testing for analgesic activity by the rat tail flick method described by [F. E. D'Amour and D. L. Smith, J Pharmcol. Exp. Ther. 72, 74 (1941)], the method was modified as follows. Groups of male Sprague-Dawley rats weighing 140-170 g. are prepared by blackening their tails with India ink. Radiant heat is focused on their tails and adjusted so that the normal pain threshholds (time in seconds until an escape response or tail flick occurs) are in the range of 8 to 10 seconds. This is followed by oral administration of the test compound and hourly measurements of the animals' pain threshholds. The analgesic effects are listed in Table I as percent increase over initial pain threshhold 2 hours after dosing, or ED50's.

[3] = tested on: audiogenic seizure in mice; test: Anticonvulsant activity, audiogenic seizure test (mouse); type: in vivo, mouse (male O'Grady strain); conditions: 1 hr.; for Anticonvulsant activity, audiogenic seizure: % protection: 100 mg./kg.
Text: Audiogenic Seizure Test (Mouse)
Male O'Grady strain mice (14 to 16 g.) especially bred for susceptibility to audiogenic seizures were used as subjects. The audiogenic apparatus consisted of a wooden box enclosing a metal container with two doorbells attached to the upper section. […] [Ref: N. P. Plotnikoff and D. M. Green, J, Pharmacol. Exp. Ther., 119, 294 (1957)].

[4] = tested on: acetic acid-induced writhing in mice; test: Analgesic activity, acetic acid writhing test (W); type: in vivo, mouse (Swiss-Webster female)
Protocol: as §1
In testing for the analgesic effect of the present compounds, the acetic acid writhing test was made as that described by [B. A. Whittle, Brit. J. Pharmacol 22, 246 (1964)]. Groups of Swiss-Webster female mice were given oral doses of the drug or control vehicle. The use of the intravenous dye was eliminated. One hour later they were given 0.4 ml. of 0.5% HOAc intraperitoneally. The number of writhes occurring in 20 minutes were counted starting 5 minutes after the injection of HOAc. Analgesic activity was reported as percent inhibition of writhing vs. controls or as ED50%.

| Compound | Analgesic activity, RTF: percent increase over initial pain threshhold ([2]; 40 mg./kg.) [%] | Anticonvulsant activity, audiogenic seizure: % protection [3] [%] | Antipsychotic activity (Rat Desoxyn antagonism) [1] [%] | other results |
| --- | --- | --- | --- | --- |
| C=C(C)c1ccncc1-c1c(O)cc(C(C)C(C)CCCCC)cc1O (stereo not drawn) [Compound (VIII), 2-[4-Isopropenyl-3-Pyridyl]-5-(3-Methyl-2-Octyl) Resorcinol] | 59 | 100 |  | Antipsychotic activity (Rat Desoxyn antagonism), result in words ([1]; dose not stated): Inactive |
| C=C(C)c1ccc(C)cc1-c1c(OC(C)=O)cc(C(C)C(C)CCCCC)cc1OC(C)=O (stereo not drawn) [Compound (XI), 1,3-Diacetyl-2-[(2-isopropenyl-5-methyl)phenyl]-5-(3-methyl-2-octyl)resorcinol] |  | 70 | 55 | Analgesic activity, W(PO): percent inhibition of writhing vs. controls ([4]; 10-40 mg./kg.): 40-50% |
| CCCCCC(C)C(C)c1cc(O)c(-c2cc(C)ccc2C(C)C)c(O)c1 (stereo not drawn) [Compound (XII), 2-[(2-Isopropyl-5-methyl)phenyl]-5-(3-methyl-2-octyl)resorcinol] |  | 60 | 77 | Analgesic activity, W(PO): percent inhibition of writhing vs. controls ([4]; 40 mg./kg.): 47%; Analgesic activity, RTF: percent increase over initial pain threshhold ([2]; 22 mg./kg.): 45% |
| CCCCCC(C)C(C)c1cc(O)c(-c2cnccc2C(C)C)c(O)c1 (stereo not drawn) [Compound (X), 2-[4-Isopropyl-3-pyridyl]-5-(3-methyl-2-octyl)resorcinol] | 53 | 60 |  | ED50 ([4]; Mus musculus, po): 44 mg/kg |
| C=C(C)c1ccncc1-c1c(OC(C)=O)cc(C(C)C(C)CCCCC)cc1OC(C)=O (stereo not drawn) [Compound (VII), 1,3-Diacetyl-2-[4-Isopropenyl-3-Pyridyl]-5-(3-Methyl-2-Octyl)Resorcinol] |  |  | 66 | Analgesic activity, RTF: percent increase over initial pain threshhold ([2]; 20 mg./kg.): 23%; ED50 ([3]; Mus musculus, protection, estimated (est.)): ~9 mg/kg |
| CCCCCC(C)C(C)c1cc(OC(C)=O)c(-c2cnccc2C(C)C)c(OC(C)=O)c1 (stereo not drawn) [Compound (IX), 1,3-Diacetyl-2-[4-Isopropyl-3-Pyridyl]-5-(3-Methyl-2-Octyl)Resorcinol] | 20 |  |  | Analgesic activity, W(PO): percent inhibition of writhing vs. controls ([4]; 80 mg./kg.): 30% |
